Assay results reported in PubChem BioAssay (NCI).
Where “and” joins values, the source holds several entries; their conditions need not be identical. Identical values can stand only once.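 In this assay, cells in 96-well plates receive the compound at five concentrations for 48 hours. Endpoints are linearly interpolated between the surrounding concentrations. At the GI50, growth is halved. The concentration for full growth arrest is given as TGI.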

Legend:
Assay in all cases: inhibition of tumour cell growth, NCI panel, 48 h
[1] = tested on: COLO 205 colon
[2] = tested on: NCI/ADR-RES ovarian
[3] = tested on: SF-295 CNS
[4] = tested on: MDA-MB-435
[5] = tested on: EKVX NSCLC
[6] = tested on: CCRF-CEM leukemia
[7] = tested on: MCF7 breast
[8] = tested on: SN12C renal
[9] = tested on: RPMI-8226 leukemia
[10] = tested on: KM12 colon
[11] = tested on: K-562 leukemia
[12] = tested on: SK-MEL-5 melanoma
[13] = tested on: UACC-257 melanoma
[14] = tested on: 786-0 renal
[15] = tested on: HCC-2998 colon
[16] = tested on: RXF 393 renal
[17] = tested on: CAKI-1 renal
[18] = tested on: OVCAR-3 ovarian
[19] = tested on: TK-10 renal
[20] = tested on: SW-620 colon
[21] = tested on: UACC-62 melanoma
[22] = tested on: T-47D breast
[23] = tested on: MALME-3M melanoma
[24] = tested on: HT29 colon
[25] = tested on: NCI-H226 lung
[26] = tested on: SF-268 CNS
[27] = tested on: ACHN renal
[28] = tested on: U251 CNS
[29] = tested on: MDA-MB-231 breast
[30] = tested on: NCI-H23 lung
[31] = tested on: HCT-116 colon
[32] = tested on: IGROV1 ovarian
[33] = tested on: A498 renal
[34] = tested on: SF-539 CNS
[35] = tested on: NCI-H522 lung
[36] = tested on: SK-OV-3 ovarian
[37] = tested on: HOP-62 NSCLC
[38] = tested on: OVCAR-4 ovarian
[39] = tested on: SK-MEL-2 melanoma
[40] = tested on: HL-60(TB) leukemia
[41] = tested on: NCI-H460 lung
[42] = tested on: UO-31 renal
[43] = tested on: SR leukemia
[44] = tested on: SNB-19 CNS
[45] = tested on: BT-549 breast
[46] = tested on: LOX IMVI melanoma
[47] = tested on: OVCAR-5 ovarian
[48] = tested on: MOLT-4 leukemia
[49] = tested on: SNB-75 CNS
[50] = tested on: HS 578T breast
[51] = tested on: HOP-92 NSCLC
[52] = tested on: SK-MEL-28 melanoma
[53] = tested on: OVCAR-8 ovarian
[54] = tested on: DU-145 prostate
[55] = tested on: HCT-15 colon
[56] = tested on: PC-3 prostate
[57] = tested on: A549 NSCLC
[58] = tested on: M14 melanoma

In the case of `CO[C@@H](C(=O)N1Cc2[nH]nc(NC(=O)c3ccc(N4CCN(C)CC4)cc3)c2C1)c1ccccc1`, the GI50 [1] is reported as 48.3 nM and 39.5 nM, the TGI [1] is reported as 1030 nM and 625 nM and the GI50 [2] is reported as greater than 100000 nM. For the same molecule, the TGI [2] was greater than 100000 nM, the GI50 [3] was 715 nM and 146 nM and the TGI [3] was greater than 100000 nM. The GI50 [4] was 2690 nM and 3080 nM, the TGI [4] was 17400 nM and > 10000 nM and the GI50 [5] was 1730 nM and 1890 nM. The TGI [5] was 37600 nM and > 10000 nM, the TGI [6] was greater than 100000 nM and the GI50 [7] was 104 nM and 73.6 nM. The TGI [7] was 23100 nM and > 10000 nM, the TGI [8] was greater than 100000 nM and the GI50 [9] was 7040 nM and 5810 nM. The TGI [9] was greater than 52500 nM, the GI50 [10] was 216 nM and 125 nM and the TGI [10] was 7090 nM and > 8180 nM. The GI50 [11] was 106 nM and 54.7 nM, the TGI [11] was greater than 100000 nM and the GI50 [12] was 1650 nM and 2760 nM. For the same molecule, the TGI [12] was 12100 nM and > 10000 nM, the GI50 [13] was 613 nM and 1060 nM and the TGI [13] was 18900 nM and > 10000 nM. For the same molecule, the GI50 [14] was 2550 nM and 2000 nM, the TGI [14] was 31400 nM and > 10000 nM and the GI50 [15] was 525 nM and 503 nM. The TGI [15] was 46000 nM and > 10000 nM, the GI50 [16] was 593 nM and 312 nM and the TGI [16] was 3720 nM and 2090 nM. The GI50 [17] was 19600 nM and > 10000 nM, the TGI [17] was greater than 91400 nM and the GI50 [18] was 866 nM and 1130 nM. The TGI [18] was greater than 87000 nM, the GI50 [19] was 3280 nM and 2780 nM and the TGI [19] was 67200 nM and > 10000 nM. For the same molecule, the GI50 [20] was 314 nM and 129 nM, the TGI [20] was 22300 nM and > 10000 nM and the GI50 [21] was 548 nM and 482 nM. The TGI [21] was 50500 nM and > 10000 nM, the GI50 [22] was 792 nM and 538 nM and the TGI [22] was 69300 nM and > 10000 nM. The GI50 [23] was 509 nM and 4410 nM, the TGI [23] was 22900 nM and > 10000 nM and the GI50 [24] was 713 nM and 658 nM. The TGI [24] was 2650 nM and 8970 nM, the GI50 [25] was 360 nM and 80.4 nM and the TGI [25] was 49300 nM and > 8910 nM. The GI50 [26] was 1060 nM and 889 nM, the TGI [26] was 8080 nM and 4640 nM and the GI50 [27] was 4970 nM and 6660 nM. For the same molecule, the TGI [27] was greater than 69600 nM, the GI50 [28] was 2160 nM and 1510 nM and the TGI [28] was greater than 50100 nM. For the same molecule, the GI50 [29] was 562 nM and 142 nM, the TGI [29] was greater than 70500 nM and the GI50 [30] was 764 nM and 609 nM. For the same molecule, the TGI [30] was 23700 nM and > 10000 nM, the GI50 [31] was 117 nM and 87.9 nM and the TGI [31] was 6670 nM and > 8710 nM. The GI50 [32] was 282 nM and 62.4 nM, the TGI [32] was 3010 nM and 2950 nM and the GI50 [33] was 69.6 nM and 317 nM. For the same molecule, the TGI [33] was 1320 nM and 3620 nM, the GI50 [34] was 459 nM and 105 nM and the TGI [34] was 12000 nM and 5630 nM. The GI50 [35] was 469 nM and 163 nM, the TGI [35] was 45500 nM and > 10000 nM and the GI50 [36] was 591 nM and 863 nM. For the same molecule, the TGI [36] was greater than 41200 nM, the GI50 [37] was 1040 nM and 585 nM and the TGI [37] was 19300 nM and > 10000 nM. The GI50 [38] was 610 nM and 2820 nM, the TGI [38] was greater than 52400 nM and the GI50 [39] was 4330 nM and 6860 nM. The TGI [39] was 33100 nM and > 10000 nM, the GI50 [40] was 3250 nM and 4350 nM and the TGI [40] was 28300 nM and > 10000 nM. The GI50 [41] was 224 nM and 99.7 nM, the TGI [41] was 18000 nM and > 10000 nM and the GI50 [42] was 9330 nM and 3670 nM. The TGI [42] was 33800 nM and > 10000 nM, the GI50 [43] was 56.9 nM and 39.5 nM and the TGI [43] was greater than 35600 nM. The GI50 [44] was 4020 nM and 2930 nM, the TGI [44] was greater than 100000 nM and the GI50 [45] was 809 nM and 1390 nM. The TGI [45] was 5900 nM and > 10000 nM, the GI50 [46] was 255 nM and 82.5 nM and the TGI [46] was 2050 nM and 1820 nM. The GI50 [47] was 1350 nM and 850 nM, the TGI [47] was greater than 68800 nM and the GI50 [48] was 12600 nM and 2300 nM. For the same molecule, the TGI [48] was greater than 81100 nM, the GI50 [49] was 215 nM and the TGI [49] was 1660 nM. For the same molecule, the GI50 [50] was 1370 nM and 232 nM, the TGI [50] was 7920 nM and 859 nM and the GI50 [51] was 153 nM and 63.9 nM. For the same molecule, the TGI [51] was 731 nM and 1240 nM, the GI50 [52] was 3110 nM and 2720 nM and the TGI [52] was 20900 nM and > 10000 nM. The GI50 [53] was 2270 nM and 1840 nM, the TGI [53] was greater than 100000 nM and the GI50 [54] was 2020 nM and 1930 nM. The TGI [54] was 17900 nM and > 10000 nM, the GI50 [55] was 18800 nM and > 10000 nM and the TGI [55] was greater than 100000 nM. For the same molecule, the GI50 [56] was 1530 nM and 2530 nM, the TGI [56] was 40700 nM and > 10000 nM and the GI50 [57] was 419 nM and 158 nM. The TGI [57] was greater than 69600 nM, the GI50 [58] was 3730 nM and 2340 nM and the TGI [58] was 23400 nM and > 10000 nM.
